Measurements taken from the supplement of paper PMC10307832.

Tests used:
Assay in all cases: relative viability (nuclei count vs DMSO), 5 days (fraction); higher = more cells survive
Ruxolitinib + Lapatinib = compound: N#CC[C@H](C1CCCC1)n1cc(-c2ncnc3[nH]ccc23)cn1 [Ruxolitinib] + CS(=O)(=O)CCNCc1ccc(-c2ccc3ncnc(Nc4ccc(OCc5cccc(F)c5)c(Cl)c4)c3c2)o1 [Lapatinib] (partner 2 µM)
How it was run: (§1)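 Cells from lung cancer lines were seeded into 1536-well plates and, one day later, dosed by pin tool. Treatments were either a single drug or a fixed dose of an anchor drug with five library-drug doses (not always all listed) in √10 steps. After 5 days, nuclei were stained in a one-step fixation (final 0.05% Triton X-100, 1% formaldehyde, 1 ug/ml Hoechst) and counted on 4× images, and relative viability is the treated-to-vehicle nuclei ratio, as the median of duplicate plates.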

Vismodegib + Trametinib = compound: CS(=O)(=O)c1ccc(C(=O)Nc2ccc(Cl)c(-c3ccccn3)c2)c(Cl)c1 [Vismodegib] + CC(=O)Nc1cccc(-n2c(=O)n(C3CC3)c(=O)c3c(Nc4ccc(I)cc4F)n(C)c(=O)c(C)c32)c1 [Trametinib] (partner 0.02 µM)
How it was run: as §1

VE-821 + Alpelisib = compound: CS(=O)(=O)c1ccc(-c2cnc(N)c(C(=O)Nc3ccccc3)n2)cc1 [VE-821] + Cc1nc(NC(=O)N2CCC[C@H]2C(N)=O)sc1-c1ccnc(C(C)(C)C(F)(F)F)c1 [Alpelisib] (partner 2 µM)
How it was run: as §1

Vismodegib + Olaparib = compound: CS(=O)(=O)c1ccc(C(=O)Nc2ccc(Cl)c(-c3ccccn3)c2)c(Cl)c1 [Vismodegib] + O=C(c1cc(Cc2n[nH]c(=O)c3ccccc23)ccc1F)N1CCN(C(=O)C2CC2)CC1 [Olaparib] (partner 8 µM)
How it was run: as §1

Cell Line | relative viability (Ruxolitinib + Lapatinib; first compound 0.08 µM) | relative viability (Ruxolitinib + Lapatinib; first compound 0.253 µM) | relative viability (Ruxolitinib + Lapatinib; first compound 0.8 µM) | relative viability (Ruxolitinib + Lapatinib; first compound 2.53 µM) | relative viability (Ruxolitinib + Lapatinib; first compound 8 µM) | relative viability (Vismodegib + Trametinib; first compound 0.08 µM) | relative viability (Vismodegib + Trametinib; first compound 0.8 µM) | relative viability (Vismodegib + Trametinib; first compound 2.53 µM) | relative viability (Vismodegib + Trametinib; first compound 8 µM) | relative viability (VE-821 + Alpelisib; first compound 0.08 µM) | relative viability (VE-821 + Alpelisib; first compound 0.253 µM) | relative viability (VE-821 + Alpelisib; first compound 0.8 µM) | relative viability (VE-821 + Alpelisib; first compound 2.53 µM) | relative viability (VE-821 + Alpelisib; first compound 8 µM) | relative viability (Vismodegib + Olaparib; first compound 0.08 µM) | relative viability (Vismodegib + Olaparib; first compound 0.8 µM) | relative viability (Vismodegib + Olaparib; first compound 2.53 µM) | relative viability (Vismodegib + Olaparib; first compound 8 µM) | relative viability (Vismodegib + Trametinib; first compound 0.253 µM) | relative viability (Vismodegib + Olaparib; first compound 0.253 µM)
HARA | 0.766 | 0.631 | 0.76 | 0.7 | 0.675 | 0.749 | 0.613 | 0.689 | 0.659 | 1.05 | 0.912 | 0.688 | 0.926 | 0.704 | 0.786 | 0.945 | 0.856 | 0.943 |  | 
HCC-15 | 0.859 | 0.905 | 0.869 | 0.786 | 0.779 | 0.356 | 0.345 | 0.401 | 0.383 | 0.976 | 0.923 | 1.01 | 0.999 | 0.961 | 0.652 | 0.718 | 0.737 | 0.608 | 0.352 | 0.709
HCC-44 | 1.06 | 1.07 | 1.04 | 1.01 | 0.783 | 1.11 | 1.05 | 1.04 | 0.976 | 0.83 | 0.807 | 0.717 | 1.03 | 0.885 | 0.945 | 0.981 | 1.01 | 0.962 | 1.05 | 0.919
HCC-78 | 0.37 | 0.294 | 0.441 | 0.553 | 0.199 | 0.826 | 0.598 | 0.743 | 0.739 | 0.448 | 0.289 | 0.217 | 0.394 | 0.229 | 0.676 | 0.639 | 0.755 | 0.844 | 0.768 | 0.79
HCC-366 | 1.11 | 0.982 | 1.1 | 0.937 | 0.747 | 0.348 | 0.334 | 0.37 | 0.343 | 0.654 | 0.419 | 0.123 | 0.213 | 0.0456 | 0.343 | 0.378 | 0.431 | 0.372 | 0.292 | 0.364
HCC-827 |  | 0.196 | 0.172 | 0.212 | 0.225 | 0.519 | 0.528 | 0.522 | 0.509 | 1.05 | 0.972 | 0.784 | 1.07 | 0.825 | 0.581 | 0.728 | 0.678 | 0.657 | 0.491 | 0.653
HOP-62 |  | 1.07 | 1.16 | 0.91 | 0.914 | 0.357 | 0.37 | 0.354 | 0.376 | 1.09 | 0.646 | 0.723 | 0.928 | 0.93 | 0.403 | 0.387 | 0.396 | 0.345 | 0.379 | 0.47
IA-LM | 0.903 | 0.657 | 1.04 | 1.01 | 0.477 |  |  |  |  | 0.905 | 0.475 | 0.797 | 1.04 | 0.738 | 0.841 | 0.892 | 0.773 | 0.941 |  | 0.853
LCLC-103H |  |  |  |  |  | 0.703 | 0.65 | 0.612 | 0.71 | 1 | 0.95 | 0.85 | 0.966 | 0.986 | 0.759 | 0.73 | 0.733 | 0.832 | 0.666 | 0.757
NCI-H441 |  |  |  |  |  | 0.512 | 0.409 | 0.469 | 0.489 | 0.902 | 0.801 | 0.682 | 0.672 | 0.744 | 0.561 | 0.579 | 0.55 | 0.55 |  | 
NCI-H522 |  |  |  |  |  | 0.797 | 0.639 | 0.609 | 0.669 |  |  |  |  |  | 0.786 | 0.612 | 0.567 | 0.565 | 0.763 | 0.591
NCI-H1299 | 0.937 | 0.963 | 0.957 | 0.915 | 0.718 |  |  |  |  | 1.09 | 1.04 | 1.12 | 1.09 | 1.07 | 0.913 | 0.967 | 0.935 | 0.951 |  | 0.964
NCI-H1563 | 1.07 | 0.85 | 0.979 | 0.903 | 0.774 |  |  |  |  | 0.896 | 0.933 | 0.739 | 0.805 | 0.797 |  |  |  |  |  | 
NCI-H1648 |  |  |  |  |  | 0.38 | 0.383 | 0.49 | 0.535 |  |  |  |  |  | 0.781 | 0.46 | 0.645 | 0.872 | 0.48 | 0.767
NCI-H1650 |  | 0.826 | 1.05 | 0.761 | 0.89 | 0.621 | 0.643 | 0.606 | 0.666 |  |  |  |  |  | 0.896 | 0.763 | 0.794 | 0.746 | 0.522 | 0.633
NCI-H1703 | 0.999 | 1.01 | 1.12 | 0.738 | 0.64 |  |  |  |  | 0.379 | 0.253 | 0.279 | 0.343 | 0.233 | 0.495 | 0.543 | 0.349 | 0.44 |  | 0.42
NCI-H2342 |  |  |  |  |  | 1.02 | 0.843 | 0.764 | 0.728 |  |  |  |  |  | 0.402 | 0.418 | 0.52 | 0.406 | 0.738 | 0.421
SW 900 |  |  |  |  |  | 0.801 | 1.1 |  | 0.921 |  |  |  |  |  | 0.743 | 0.784 |  | 0.803 | 0.73 | 0.866
